{"source": "patent US20170136008A1", "about": "“OXABICYCLOHEPTANES AND OXABICYCLOHEPTENES FOR THE TREATMENT OF OVARIAN CANCER” (priority 2014, published 2017)", "key": {"[1]": {"tested_on": "PEO1-Missense (PEO-1m) ovarian cancer cell line", "assay": "MTT cytotoxicity assay, PEO1-Missense", "format": "cell-based, human", "conditions": "Homo sapiens, read-out: IC50, viability of ovarian cancer cell line", "procedure": "SKOV-3 ovarian cancer cells were purchased from American Type Culture Collection (ATCC) (Manassas, Va.). SKOV-3 cells were cultured in McCoy's 5A medium (ATCC, Manassas, Va.) supplemented with 10% fetal bovine serum and 100 units/mL penicillin G sodium, 100 ug/mL streptomycin sulfate, and 292 μg/ml, L-glutamine (BioWhittaker, Wakersville, Md.). Luciferase-expressing cells were generated by infecting SKOV-3 cells with pCLNCX-luciferase retrovirus (SKOV-3-Luc) as previously reported (Wei, B. R. et al. 2009). Human OVCAR-8 ovarian cancer cells were provided by the National Cancer Institute (part of the NCI-60 collection). The PEO1, PEO4, and PEO6 ovarian cancer cell lines have previously been characterized (Langdon, S. P. et al. 1988) and were kindly provided by Dr. Ian Goldlust (National Center for Advancing Translational Sciences, Shady Grove, Md.). […]\nCell survival was measured by the 3-(4,5-dimethylthiazol-2-yl)-2,5-diphenyltetrazolium bromide (MTT, Invitrogen) assay. […] Absorbance values were determined at […] on a Spectra Max 250 spectrophotometer (Molecular Devices, Sunnyvale, Calif.). […] Cell viability was analyzed via the MTT assay as described above. […]"}, "SKOV-3 cells": {"tested_on": "SKOV-3 cells", "assay": "Cell-cycle analysis (FACS), SKOV-3", "format": "cell-based, human", "procedure": "For cell-cycle analysis, cells were washed with PBS and fixed overnight in ice-cold 70% ethanol and stored at 4° C. Cells were then centrifuged and resuspended in 100 U RNAse (Sigma-Aldrich), and incubated at 37° C. for 20 min. Propidiumidodide solution (Invitrogen, 500 μL, 50 μg/mL in DPBS) was added to each tube and incubated in the dark at 4° C. overnight. Flow cytometry analysis was performed with CellQuestPro and data analysis was completed with ModFit LT. All data is in triplicate and presented as a percent mean±SD."}, "[2]": {"tested_on": "DNA damage response, checkpoint and apoptosis proteins in SKOV-3 cells", "assay": "Immunoblotting, SKOV-3 cells", "format": "cell-based, human", "procedure": "Whole cell and homogenized tumor tissues were lysed in NP-40 lysis buffer [50 mM Tris/HCl, pH 7.4, 150 mM NaCl and 1% Nonidet P40, supplemented with Complete Protrase Inhibitor Cocktail tablets and PhosStop phosphatase inhibitors (Roche, Indianapolis, Ind.)] and prepared as previously described (Madigan, J. P. et al. 2009). Protein (40 μg) was resolved on SDS/PAGE (12% or 15% gels) and transferred onto Immobilon PVDF membrane. The membrane was then blocked for 1 hour at room temperature in 5% (w/v) non-fat milk in TBS-Tween and probed overnight with primary antibodies. After extensive washing, cells were probed with anti-rabbit or anti-mouse IgG-horseradish per oxidase (HRP)-conjugated secondary antibodies (Cell Signaling Technology, Danvers, Mass.) in blocking buffer for 1 h. Membranes were subsequently incubated in Immobilon Western blot Chemiluminescent HRP Substrate (Millipore) and developed on biomax XAR film (Kodak). Antibodies were purchased from Cell Signaling Technology: γH2AX (Ser139), p-Wee1 (Ser 642), Wee1, p-cdc2 (Tyr15), p-BRCA1 (Ser1524), p-Chk1 (Ser345), p-Chk1 (Ser317), Chk-1, phospho-Chk2 (Thr68), PP2Ac, cleaved caspase-3 (Asp175), cleaved PARP (Asp214), p-histone H3 (Ser10), p-ATR (Ser428), and p-(Ser)14-3-3 binding motif."}, "[3]": {"tested_on": "HEK 293 human embryonic kidney cell lines overexpressing Pgp, MRP1, or ABCG2", "assay": "IC50 in ABC transporter-overexpressing HEK 293 lines", "format": "cell-based", "conditions": "HEK 293 overexpressing Pgp", "procedure": "When HEK 293 human embryonic kidney cell lines overexpressing Pgp, MRP1, or ABCG2 (Robey, R. W. et al. 2005) were treated with equal concentration of LB100, the IC50s of the transfected lines were not different compared with parent (non-transporter-expressing) cells or in the presence of an inhibitor (tariquidar) (FIG. 5)."}, "PP2A": {"target": "T1, PP2A (Homo sapiens, UniProt P67775)", "T1 construct": "endogenous in cells; host or cells: SKOV-3 ovarian cancer cells (lysate supernatant, assayed with the Millipore PP2A Phosphatase Assay Kit)", "T1 sequence (P67775 whole entry)": "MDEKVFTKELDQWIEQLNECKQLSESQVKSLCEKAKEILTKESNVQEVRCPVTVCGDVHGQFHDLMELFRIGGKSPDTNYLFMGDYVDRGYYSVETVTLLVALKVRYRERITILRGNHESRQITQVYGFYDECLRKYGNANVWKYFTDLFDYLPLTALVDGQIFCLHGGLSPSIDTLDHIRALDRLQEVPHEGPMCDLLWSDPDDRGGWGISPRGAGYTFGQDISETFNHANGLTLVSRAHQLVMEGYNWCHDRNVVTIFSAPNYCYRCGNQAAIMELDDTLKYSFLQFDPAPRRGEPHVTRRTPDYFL", "T1 sequence (P30153 2-589 partner limits assumed)": "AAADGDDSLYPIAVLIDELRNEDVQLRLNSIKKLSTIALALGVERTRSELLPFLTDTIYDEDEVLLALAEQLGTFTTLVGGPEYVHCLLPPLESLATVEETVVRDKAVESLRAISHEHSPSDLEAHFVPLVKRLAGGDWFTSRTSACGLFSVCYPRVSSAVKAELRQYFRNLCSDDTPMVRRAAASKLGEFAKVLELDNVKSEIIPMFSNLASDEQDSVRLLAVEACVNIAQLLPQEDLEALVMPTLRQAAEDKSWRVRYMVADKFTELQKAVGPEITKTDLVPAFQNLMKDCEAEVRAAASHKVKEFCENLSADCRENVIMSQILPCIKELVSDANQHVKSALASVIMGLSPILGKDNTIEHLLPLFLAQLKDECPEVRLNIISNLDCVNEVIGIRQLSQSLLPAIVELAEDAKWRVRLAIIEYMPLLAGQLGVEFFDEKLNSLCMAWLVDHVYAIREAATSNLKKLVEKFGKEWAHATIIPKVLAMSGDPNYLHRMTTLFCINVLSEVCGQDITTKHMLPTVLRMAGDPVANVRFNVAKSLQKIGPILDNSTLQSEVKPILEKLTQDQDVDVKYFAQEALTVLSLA", "assay": "PP2A phosphatase activity assay", "format": "cell-based", "conditions": "cell lysate from SKOV-3 cells, 2 h treatment", "procedure": "Ovarian cancer cells were grown to 80% confluence in 100 mm dishes and treated with LB100 as indicated and prepared as described previously (Wei, D. et al. 2013). Following treatment for 2 h, cells were washed twice with cold PBS (pH7.4) and lysed in lysis buffer (20 mmol/L imidazole-HCL, 2 mmol/L EDTA, 2 mmol/L EGTA, pH 7.0) supplemented with protease inhibitors (Roche) for 30 minutes on ice. Cell lysates were sonicated for 10 s then centrifuged at 2,000×g for 5 min. Supernatants were assayed with the PP2A Phosphatase Assay Kit (Millipore, Billerica, Mass.) according to the manufacturer's instructions. Experiments were performed in triplicate, and the data are presented as a percent mean of relative PP2A activity compared to control ±SD."}}, "data": [{"smiles": "CN1CCN(C(=O)C2C(C(=O)O)[C@H]3CC[C@@H]2O3)CC1", "note": "(stereo partly drawn) [LB100]", "values": [{"measurement": "IC50", "setting": "[1]", "result": "6.2 ± 1.5", "unit": "µM"}, {"measurement": "G1 (%)", "setting": "SKOV-3 cells; 24 h, LB100 5 μM", "result": "51.4 ± 1.5", "unit": "%"}, {"measurement": "G2/M (%)", "setting": "SKOV-3 cells; 24 h, LB100 5 μM", "result": "28.9 ± 1.2", "unit": "%"}, {"measurement": "S (%)", "setting": "SKOV-3 cells; 24 h, LB100 5 μM", "result": "19.7 ± 0.8", "unit": "%"}, {"measurement": "G1 (%)", "setting": "SKOV-3 cells; 48 h, LB100 2 μM", "result": "49.8 ± 0.5", "unit": "%"}, {"measurement": "G2/M (%)", "setting": "SKOV-3 cells; 48 h, LB100 2 μM", "result": "25.1±0.8", "unit": "%"}, {"measurement": "S (%)", "setting": "SKOV-3 cells; 48 h, LB100 2 μM", "result": "25.1 ± 0.3", "unit": "%"}, {"measurement": "G1 (%)", "setting": "SKOV-3 cells; 48 h, LB100 5 μM", "result": "47.2 ± 1.9", "unit": "%"}, {"measurement": "G2/M (%)", "setting": "SKOV-3 cells; 48 h, LB100 5 μM", "result": "25.1 ± 0.8", "unit": "%"}, {"measurement": "S (%)", "setting": "SKOV-3 cells; 48 h, LB100 5 μM", "result": "30.2 ± 3.1", "unit": "%"}, {"measurement": "G1 (%)", "setting": "SKOV-3 cells; 48 h, LB100 10 μM", "result": "36.8 ± 1.8", "unit": "%"}, {"measurement": "G2/M (%)", "setting": "SKOV-3 cells; 48 h, LB100 10 μM", "result": "32.1±1.6", "unit": "%"}, {"measurement": "S (%)", "setting": "SKOV-3 cells; 48 h, LB100 10 μM", "result": "31.1 ± 0.8", "unit": "%"}, {"measurement": "G1 (%)", "setting": "SKOV-3 cells; 48 h, LB100 15 μM", "result": "42.3 ± 1.6", "unit": "%"}, {"measurement": "G2/M (%)", "setting": "SKOV-3 cells; 48 h, LB100 15 μM", "result": "33.9±1.4", "unit": "%"}, {"measurement": "S (%)", "setting": "SKOV-3 cells; 48 h, LB100 15 μM", "result": "23.8 ± 0.2", "unit": "%"}, {"measurement": "expression of p-Ser14-3-3 binding motifs compared to control treatment", "setting": "[2]; LB100-treated SKOV-3 cells", "result": "widespread increased expression"}, {"measurement": "phosphorylation of γH2AX, Chk2, and BRCA1 at 24 h, and JNK at 72 h", "setting": "[2]; SKOV-3, LB100", "result": "enhanced and prolonged"}, {"measurement": "phosphorylation of Wee-1 compared to control", "setting": "[2]; SKOV-3, LB100 5 μM, 24 h", "result": "induced hyperphosphorylation"}, {"measurement": "IC50s of transfected lines compared with parent cells or in the presence of tariquidar", "setting": "[3]", "result": "not different"}, {"measurement": "PP2A enzymatic function", "setting": "PP2A", "result": "concentration-dependent decrease"}]}]}
